The values that follow come from ChEMBL document CHEMBL1201862, “PubChem BioAssay data set” (2004).

In general, AC50 refers to the concentration at which the activity in the assay is half-maximal.

Structures are written as SMILES. The source made the active and inactive calls. Bounds are passed on as bounds.

The target of experiment [1] is T1, Probable nicotinate-nucleotide adenylyltransferase (Staphylococcus aureus (strain N315), UniProt P65502). The experiment is classed as functional, Staphylococcus aureus subsp. aureus N315.
Experiment [2] addresses T1, Probable nicotinate-nucleotide adenylyltransferase. It counts as functional, Staphylococcus aureus subsp. aureus N315. The following applies: read-out: IC50_Mean.
Experiment [3] addresses T2, Sentrin-specific protease 1 (Homo sapiens, UniProt Q9P0U3). The experiment can be described thus: Dose response confirmation of small molecule inhibitors of the catalytic domain of the SUMO protease, SENP1 in a FRET assay. It counts as functional. Particulars: read-out: IC50_Mean.
Experiment [4] can be described thus: microbe, parasite or virus in culture. The experiment is classed as functional. The following applies: Mycobacterium tuberculosis.
Experiment [5] in a line: HeLa cell cytotoxicity, dose response, cytotoxicity control for MgcRacGAP inhibitor project (AID 624300). The experiment is classed as functional.
Experiment [6] concerns the target T2, Sentrin-specific protease 1. As to the kind of experiment: potency of human SENP1 inhibitors, dose response, biochemical, kinetic FRET (AID 651697). Particulars: read-out: IC50_Mean. The experiment is classed as functional.
The target in experiment [7] is T3, Rac GTPase-activating protein 1 (Homo sapiens, UniProt Q9H0H5).
T3 sequence (Q9H0H5 whole entry): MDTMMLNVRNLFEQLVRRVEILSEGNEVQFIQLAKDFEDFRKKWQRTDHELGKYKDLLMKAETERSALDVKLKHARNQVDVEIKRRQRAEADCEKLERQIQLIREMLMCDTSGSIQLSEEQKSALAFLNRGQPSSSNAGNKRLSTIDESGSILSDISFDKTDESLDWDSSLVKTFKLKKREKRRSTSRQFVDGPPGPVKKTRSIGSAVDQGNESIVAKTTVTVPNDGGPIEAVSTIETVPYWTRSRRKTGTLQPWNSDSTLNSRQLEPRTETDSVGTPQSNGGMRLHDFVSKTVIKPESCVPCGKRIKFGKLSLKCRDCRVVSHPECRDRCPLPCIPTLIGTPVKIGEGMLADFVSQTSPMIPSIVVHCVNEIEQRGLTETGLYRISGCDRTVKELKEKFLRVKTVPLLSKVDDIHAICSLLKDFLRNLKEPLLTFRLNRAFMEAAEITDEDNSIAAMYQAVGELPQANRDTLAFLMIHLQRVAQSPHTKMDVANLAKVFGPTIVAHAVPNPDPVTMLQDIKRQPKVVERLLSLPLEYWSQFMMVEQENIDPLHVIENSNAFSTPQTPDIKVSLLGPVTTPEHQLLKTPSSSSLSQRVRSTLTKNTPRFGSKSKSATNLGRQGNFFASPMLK
The experiment can be described thus: MgcRacGAP GTPase-activating activity inhibitors, confirmation, biochemical, ADP Hunter fluorescence, primary and confirmatory (AID 624330). The experiment is classed as functional.

In experiment [8] the target is T4, Corticotropin-releasing factor receptor 2/Corticotropin-releasing factor-binding protein (Homo sapiens, UniProt P24387+Q13324).
T4 sequence (Q13324 whole entry): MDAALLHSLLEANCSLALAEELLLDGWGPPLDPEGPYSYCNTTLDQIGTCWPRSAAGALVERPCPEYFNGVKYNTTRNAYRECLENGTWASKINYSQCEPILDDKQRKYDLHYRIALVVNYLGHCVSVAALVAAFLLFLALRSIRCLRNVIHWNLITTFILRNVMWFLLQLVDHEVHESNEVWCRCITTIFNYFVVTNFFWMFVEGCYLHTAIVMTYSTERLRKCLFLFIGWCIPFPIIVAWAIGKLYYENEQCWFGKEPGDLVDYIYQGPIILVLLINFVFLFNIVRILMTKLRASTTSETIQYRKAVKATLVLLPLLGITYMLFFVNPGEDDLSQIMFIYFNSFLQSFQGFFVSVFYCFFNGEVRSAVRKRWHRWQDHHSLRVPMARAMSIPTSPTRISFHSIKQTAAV
T4 sequence (P24387 whole entry): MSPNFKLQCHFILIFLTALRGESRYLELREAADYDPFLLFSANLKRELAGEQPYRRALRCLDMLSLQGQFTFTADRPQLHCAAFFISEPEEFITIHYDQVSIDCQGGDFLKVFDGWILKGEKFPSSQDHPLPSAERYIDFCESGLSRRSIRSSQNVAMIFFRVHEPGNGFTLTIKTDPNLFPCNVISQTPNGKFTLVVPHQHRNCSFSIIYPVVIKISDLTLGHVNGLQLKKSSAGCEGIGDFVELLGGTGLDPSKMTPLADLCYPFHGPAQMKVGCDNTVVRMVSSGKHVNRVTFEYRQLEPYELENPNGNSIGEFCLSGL
As to the kind of experiment: Dose Response confirmation of uHTS hits for small molecule antagonists of the CRF-binding protein and CRF-R2 receptor complex. The following applies: read-out: IC50_Mean. The experiment is classed as functional.

Experiment [9] concerns the target T4, Corticotropin-releasing factor receptor 2/Corticotropin-releasing factor-binding protein. As to the kind of experiment: activators of CRF receptor 2 with binding protein – uHTS hits, confirmation (AID 602473). It counts as functional. Particulars: read-out: EC50_Mean.
A short description of experiment [10]: CRF-BP/CRF-R2 complex antagonists, dose response, cell-based, uHTS hits, 384-well (AID 651639). It counts as functional, Homo sapiens. Particulars: read-out: IC50_Mean.
Experiment [11] addresses ADP-ribosylation factor GTPase-activating protein 1 (Rattus norvegicus, UniProt Q62848). As to the kind of experiment: Fluorescence polarization-based biochemical high throughput dose response screening assay to identify inhibitors of ADP-ribosylation factor GTPase activating protein 1 (ARFGAP1). The experiment is classed as functional.
For experiment [12], the target named is Mitogen-activated protein kinase 10 (Homo sapiens, UniProt P53779). As to the kind of experiment: Dose response biochemical screening assay for inhibitors of c-Jun N-Terminal Kinase 3 (JNK3). [Related pubchem assays: 746 ].
For experiment [13], the target named is Steroidogenic factor 1 (Homo sapiens, UniProt Q13285). As to the kind of experiment: Counterscreen for inverse agonists of the liver receptor homolog-1 (LRH-1; NR5A2): Luminescence-based cell-based high throughput dose response assay to identify inverse agonists of the Steroidogenic Factor 1 Nuclear Receptor (SF1; NR5A1). The experiment is classed as functional.

Experiment [14] in a line: StAR promoter reporter inhibition counter-screen, dose response, counter-screen for LRH-1 inverse agonist project, cell-based, luminescence, luciferase reporter (AID 651969). The experiment is classed as functional. (In general: A counterscreen serves to expose hits that act by an unwanted route or on another target.)
Experiment [15] deals with Nuclear receptor subfamily 5 group A member 2 (Homo sapiens, UniProt O00482). It counts as functional, cell-based.
In experiment [16] the target is T5, ATP-dependent translocase ABCB1 (Homo sapiens, UniProt P08183). The experiment can be described thus: ABCB1 efflux inhibitor potency, dose response, Jurkat-DNR cells, JC-1, flow cytometry, set 2 (AID 504569).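 Further: potency of pump inhibitors that raise cellular JC-1 green fluorescence up to the nicardipine level.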 It counts as functional. The following applies: read-out: EC50_MICROM_.
The target of experiment [17] is T5, ATP-dependent translocase ABCB1. As to the kind of experiment: ABCG2 efflux pump inhibitor potency, dose response, Ig-MXP3 cells, JC-1, flow cytometry, set 2 (AID 504566).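 Further: flow cytometry median green fluorescence of retained JC-1 dye; potency of efflux pump inhibition measured as rising substrate retention.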 The experiment is classed as functional. The following applies: read-out: EC50_MICROM_. Background: In flow cytometry, cells or beads pass a laser one at a time.
Experiment [18] is described as follows: NIH-3T3 fibroblast cytotoxicity, dose response, cytotoxicity control, cell-based, fluorescence, Alamar Blue, secondary assay (AID 2327).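 Further: NIH-3T3 mouse fibroblasts cultured with fluconazole at 8 µg/mL.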 It counts as functional. For orientation: Resazurin is reduced to fluorescent resorufin, in cell work by metabolically active cells.
The nature of experiment [19]: cytotoxicity in NIH3T3 fibroblasts, dose response, cytotoxicity control for HSP40 inhibitor project, cell-based, CellTiter-Glo luminescence, cherry-pick, set 2 (AID 624265). The experiment is classed as functional.
Experiment [20] in a line: cells. It counts as functional, cell-based.
For experiment [21], the target named is Heat shock protein HSP 90-alpha (Homo sapiens, UniProt P07900). It counts as functional, organism-based.
A short description of experiment [22]: cells. It counts as functional, cell-based. This is another data set of the same source.
Experiment [23] is described as follows: C. albicans growth with fluconazole, confirmation, fluorescence, retest (AID 2467). It counts as functional, cell-based.
Experiment [24] concerns INS1. The experiment can be described thus: beta cell apoptosis inhibitors, cytokine rescue, dose response, luminescence, retest (AID 449756).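 Further: cell death triggered by IL-1 beta plus TNF-alpha plus IFN-gamma mixture; protective hits raise ATP signal compared with cytokine alone wells.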 The following applies: Rattus norvegicus. The experiment is classed as functional, cell-based.
Experiment [25] has as its target T6, Heat shock factor protein 1 (Mus musculus, UniProt P38532).
T6 sequence (P38532 whole entry): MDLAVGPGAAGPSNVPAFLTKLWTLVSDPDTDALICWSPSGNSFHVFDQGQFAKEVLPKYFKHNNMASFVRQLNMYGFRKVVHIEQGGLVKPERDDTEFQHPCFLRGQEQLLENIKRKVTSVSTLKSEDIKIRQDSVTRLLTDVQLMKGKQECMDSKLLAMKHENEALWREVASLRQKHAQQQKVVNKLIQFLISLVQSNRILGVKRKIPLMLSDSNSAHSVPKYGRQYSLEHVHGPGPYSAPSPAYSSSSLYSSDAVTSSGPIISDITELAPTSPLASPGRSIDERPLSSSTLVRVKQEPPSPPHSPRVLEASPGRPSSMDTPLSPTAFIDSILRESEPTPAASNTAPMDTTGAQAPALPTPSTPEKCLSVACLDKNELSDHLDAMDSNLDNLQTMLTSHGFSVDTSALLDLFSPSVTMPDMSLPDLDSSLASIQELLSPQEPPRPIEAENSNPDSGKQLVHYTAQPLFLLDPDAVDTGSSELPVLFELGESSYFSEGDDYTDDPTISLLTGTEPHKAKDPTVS
As to the kind of experiment: inhibition of MG132-induced HSE-luciferase signal, confirmation, cell-based, NIH3T3, luminescence, dose retest (AID 2382).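 Further: NIH3T3 fibroblasts with HSF1-driven luciferase reporter stressed by proteasome inhibitor MG132; luminescence from HSF1-driven luciferase expression after 8 hours of MG132 stress.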 It counts as functional.

Experiment [26] in a line: Shn3 3'UTR reporter inhibitors, dose response, cell-based, Clone20 osteoblasts, firefly luciferase, cherry-picked (AID 624132).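 Further: firefly luciferase luminescence from reporter carrying the Shn3 3'UTR in osteoblasts.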 The experiment is classed as functional.
The nature of experiment [27]: HepG2 cell cytotoxicity, dose response, cytotoxicity control for Shn3 inhibitor project, CellTiter-Glo, cherry-picked (AID 624134). The experiment is classed as functional, cell-based.
Experiment [28] in a line: Fluorescence-based cell-based high throughput dose response assay for inhibitors of the interaction of nucleotide-binding oligomerization domain containing 2 (NOD2) and the receptor-interacting serine-threonine kinase 2 (RIPK2). The experiment is classed as functional. Particulars: Homo sapiens.
The nature of experiment [29]: control 3'UTR Renilla luciferase suppression, dose response, counter-screen for Shn3 inhibitor project, cell-based, Clone20-Shn3RL, cherry-picked (AID 624133). It counts as functional.
The target in experiment [30] is Beta Lactamase (Pseudomonas aeruginosa, UniProt Q932Y6). The experiment can be described thus: beta-lactamase reporter inhibitor potency, dose response, artefact control for NOD2-RIPK2 interaction inhibitor project, BLA reporter cells, FRET fluorescence (AID 651552). It counts as functional, cell-based.
Beta Lactamase, sequence (Q932Y6 whole entry): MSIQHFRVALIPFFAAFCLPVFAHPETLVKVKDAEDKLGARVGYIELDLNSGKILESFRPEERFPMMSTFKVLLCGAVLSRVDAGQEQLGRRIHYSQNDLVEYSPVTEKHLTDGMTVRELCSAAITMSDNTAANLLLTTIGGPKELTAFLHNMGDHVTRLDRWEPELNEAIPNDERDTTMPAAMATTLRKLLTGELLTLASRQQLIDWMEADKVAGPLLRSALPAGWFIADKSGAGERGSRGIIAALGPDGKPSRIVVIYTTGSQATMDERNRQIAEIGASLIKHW

T2 sequence (Q9P0U3 whole entry, the tested form may be a part): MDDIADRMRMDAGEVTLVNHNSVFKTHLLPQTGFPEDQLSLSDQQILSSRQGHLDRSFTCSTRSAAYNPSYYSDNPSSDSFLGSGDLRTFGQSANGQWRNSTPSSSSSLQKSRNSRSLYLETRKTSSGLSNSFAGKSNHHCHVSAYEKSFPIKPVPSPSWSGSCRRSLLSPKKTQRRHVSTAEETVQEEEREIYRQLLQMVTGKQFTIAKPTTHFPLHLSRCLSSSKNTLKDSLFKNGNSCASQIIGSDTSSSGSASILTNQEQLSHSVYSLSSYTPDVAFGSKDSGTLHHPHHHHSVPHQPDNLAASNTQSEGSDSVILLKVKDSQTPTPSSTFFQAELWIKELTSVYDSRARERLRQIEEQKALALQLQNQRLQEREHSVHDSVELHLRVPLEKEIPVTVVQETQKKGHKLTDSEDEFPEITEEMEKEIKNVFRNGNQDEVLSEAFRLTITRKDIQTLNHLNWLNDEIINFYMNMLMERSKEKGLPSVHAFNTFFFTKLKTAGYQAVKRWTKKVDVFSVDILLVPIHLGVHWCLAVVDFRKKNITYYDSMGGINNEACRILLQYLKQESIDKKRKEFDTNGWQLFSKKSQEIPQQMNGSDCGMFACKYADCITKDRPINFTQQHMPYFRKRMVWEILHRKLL
T1 sequence (P65502 whole entry): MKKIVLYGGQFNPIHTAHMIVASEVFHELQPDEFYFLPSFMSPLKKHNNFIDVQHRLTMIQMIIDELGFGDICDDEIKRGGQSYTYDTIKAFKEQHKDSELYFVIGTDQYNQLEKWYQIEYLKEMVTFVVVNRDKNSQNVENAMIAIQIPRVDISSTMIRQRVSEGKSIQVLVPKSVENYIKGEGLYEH
T5 sequence (P08183 whole entry): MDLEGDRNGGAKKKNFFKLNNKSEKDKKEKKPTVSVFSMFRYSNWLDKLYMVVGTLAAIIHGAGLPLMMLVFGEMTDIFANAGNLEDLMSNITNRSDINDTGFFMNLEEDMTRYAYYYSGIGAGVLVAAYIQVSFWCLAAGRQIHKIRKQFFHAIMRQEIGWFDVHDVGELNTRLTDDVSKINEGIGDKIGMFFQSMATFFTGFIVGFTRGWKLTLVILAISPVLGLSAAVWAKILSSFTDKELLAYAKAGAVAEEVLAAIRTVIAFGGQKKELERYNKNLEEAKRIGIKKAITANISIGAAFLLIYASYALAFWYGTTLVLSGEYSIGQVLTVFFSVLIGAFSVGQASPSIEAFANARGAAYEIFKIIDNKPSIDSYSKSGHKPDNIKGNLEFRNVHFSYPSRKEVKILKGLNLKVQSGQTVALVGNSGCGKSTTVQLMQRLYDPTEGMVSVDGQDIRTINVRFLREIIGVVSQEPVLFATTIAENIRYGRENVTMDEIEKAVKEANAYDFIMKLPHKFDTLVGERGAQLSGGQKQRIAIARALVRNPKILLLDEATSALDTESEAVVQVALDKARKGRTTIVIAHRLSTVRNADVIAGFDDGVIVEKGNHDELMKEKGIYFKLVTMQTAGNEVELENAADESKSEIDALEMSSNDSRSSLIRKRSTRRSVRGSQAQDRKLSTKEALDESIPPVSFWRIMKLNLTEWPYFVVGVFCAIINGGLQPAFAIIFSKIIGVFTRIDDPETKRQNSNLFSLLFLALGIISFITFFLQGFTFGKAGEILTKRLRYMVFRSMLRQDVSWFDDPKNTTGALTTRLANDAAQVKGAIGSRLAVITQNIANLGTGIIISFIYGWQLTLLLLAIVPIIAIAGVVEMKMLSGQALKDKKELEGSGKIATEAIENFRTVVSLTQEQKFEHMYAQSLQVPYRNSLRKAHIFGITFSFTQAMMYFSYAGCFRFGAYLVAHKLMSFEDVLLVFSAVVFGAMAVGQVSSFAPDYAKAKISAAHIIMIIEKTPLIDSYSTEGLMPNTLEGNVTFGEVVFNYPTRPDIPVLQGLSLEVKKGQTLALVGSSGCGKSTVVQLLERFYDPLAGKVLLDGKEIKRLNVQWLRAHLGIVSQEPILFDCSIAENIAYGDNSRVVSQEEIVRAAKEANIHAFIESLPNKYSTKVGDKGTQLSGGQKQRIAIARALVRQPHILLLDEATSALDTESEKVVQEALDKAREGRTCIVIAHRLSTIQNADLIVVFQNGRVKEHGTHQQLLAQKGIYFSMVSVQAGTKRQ
Mitogen-activated protein kinase 10, sequence (P53779 whole entry): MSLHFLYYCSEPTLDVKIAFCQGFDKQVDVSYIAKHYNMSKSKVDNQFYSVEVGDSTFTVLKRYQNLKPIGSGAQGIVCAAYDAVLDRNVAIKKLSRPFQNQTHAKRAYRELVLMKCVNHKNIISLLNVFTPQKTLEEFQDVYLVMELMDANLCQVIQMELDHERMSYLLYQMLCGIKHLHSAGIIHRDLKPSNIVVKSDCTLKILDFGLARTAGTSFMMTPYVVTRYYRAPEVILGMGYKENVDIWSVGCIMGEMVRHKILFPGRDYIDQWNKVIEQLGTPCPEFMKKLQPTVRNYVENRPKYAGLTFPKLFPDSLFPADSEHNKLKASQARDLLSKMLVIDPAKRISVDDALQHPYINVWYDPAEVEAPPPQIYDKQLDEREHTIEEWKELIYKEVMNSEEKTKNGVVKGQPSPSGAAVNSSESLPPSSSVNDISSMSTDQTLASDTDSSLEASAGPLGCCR
ADP-ribosylation factor GTPase-activating protein 1, sequence (Q62848 whole entry): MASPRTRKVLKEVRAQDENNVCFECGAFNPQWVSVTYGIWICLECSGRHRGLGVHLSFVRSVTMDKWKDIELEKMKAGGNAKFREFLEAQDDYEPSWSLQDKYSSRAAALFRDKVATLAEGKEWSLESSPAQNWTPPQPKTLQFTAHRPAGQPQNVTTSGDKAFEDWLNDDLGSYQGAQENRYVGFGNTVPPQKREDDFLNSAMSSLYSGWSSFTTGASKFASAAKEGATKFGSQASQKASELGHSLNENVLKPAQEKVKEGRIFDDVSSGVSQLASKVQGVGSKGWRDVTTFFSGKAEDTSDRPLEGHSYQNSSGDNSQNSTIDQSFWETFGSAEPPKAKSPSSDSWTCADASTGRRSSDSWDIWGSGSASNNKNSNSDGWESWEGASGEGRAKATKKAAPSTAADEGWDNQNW
Steroidogenic factor 1, sequence (Q13285 whole entry): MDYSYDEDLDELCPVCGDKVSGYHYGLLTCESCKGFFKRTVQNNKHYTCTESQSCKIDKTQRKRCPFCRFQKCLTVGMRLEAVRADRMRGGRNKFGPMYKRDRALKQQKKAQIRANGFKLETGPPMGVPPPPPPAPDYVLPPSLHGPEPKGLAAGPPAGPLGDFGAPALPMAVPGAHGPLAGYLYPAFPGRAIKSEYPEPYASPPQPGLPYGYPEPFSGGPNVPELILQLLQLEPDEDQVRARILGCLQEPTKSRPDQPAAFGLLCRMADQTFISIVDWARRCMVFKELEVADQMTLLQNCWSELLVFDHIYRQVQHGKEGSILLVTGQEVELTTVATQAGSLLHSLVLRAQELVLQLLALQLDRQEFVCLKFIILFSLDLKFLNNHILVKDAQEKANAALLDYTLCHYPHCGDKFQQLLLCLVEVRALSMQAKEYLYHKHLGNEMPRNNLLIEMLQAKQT
Nuclear receptor subfamily 5 group A member 2, sequence (O00482 whole entry): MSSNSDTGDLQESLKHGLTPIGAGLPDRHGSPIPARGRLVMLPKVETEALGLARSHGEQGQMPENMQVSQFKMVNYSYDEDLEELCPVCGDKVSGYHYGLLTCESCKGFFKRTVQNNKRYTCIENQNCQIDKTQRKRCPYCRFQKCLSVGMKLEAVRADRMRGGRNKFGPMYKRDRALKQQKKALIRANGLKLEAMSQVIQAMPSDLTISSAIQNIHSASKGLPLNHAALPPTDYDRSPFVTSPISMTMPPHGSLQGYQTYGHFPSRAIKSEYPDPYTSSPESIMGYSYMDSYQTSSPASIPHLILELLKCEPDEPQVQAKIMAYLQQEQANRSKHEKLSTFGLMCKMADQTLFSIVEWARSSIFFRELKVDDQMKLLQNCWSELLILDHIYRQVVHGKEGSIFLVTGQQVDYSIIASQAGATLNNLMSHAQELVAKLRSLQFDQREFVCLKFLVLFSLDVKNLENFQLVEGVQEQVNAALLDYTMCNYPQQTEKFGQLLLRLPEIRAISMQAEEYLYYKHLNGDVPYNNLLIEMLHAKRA

Take `Cc1nn(-c2ccccc2)c(N2CCCC2)c1/C=N/NC(=O)c1cccc(S(=O)(=O)Nc2ccc(Cl)cc2)c1`: the IC50 in experiment [1] is 8.05 µM (active); in experiment [2], 28.9 µM (active).

As to `C/C(=N\NC(=O)c1ccc(O)cc1)c1ccc2c(c1)Nc1ccccc1S2`, the IC50 is 4.61 µM (active) in experiment [3], 7.06 µM (active) in [6] and 35.3 µM (active) in experiment [7]. The CC50 was 21.2 µM (active) in experiment [4] and 86.9 µM (active) in [5].

As to `COc1cccc(C2CC(c3cccs3)=NN2C(=O)c2ccco2)c1O` (stereo unspecified), the values for the IC50 in experiment [8] and in experiment [10] were 5.3 µM (active) and 1.51 µM (active), respectively. Moreover, in [9], the EC50 is > 53 µM (inactive).

With `Cc1cc(=O)oc2cc(OCc3ccc(C(=O)OCC(=O)Nc4ccccc4OC(F)F)cc3)ccc12`, in [11], the IC50 was 31.3 µM (inactive).

As to `O=C(NCc1cccnc1)c1cccc2c1C(=O)N(C1CCCCC1)C2`, the IC50 in experiment [12] is 27.4 µM (not active); in experiment [13] it was 3.71 µM (active); in [14], 35.9 µM (inactive); in [15], 17.8 µM (inactive).

Turning to `Cc1cc(N2CCN(C(=O)c3ccoc3)CC2)n2nc(-c3ccc(Br)cc3)cc2n1`, the EC50 in experiment [16] is 11.2 µM (active); in experiment [17] it was 2.08 µM (active).

On to `Oc1ccc(Br)cc1/C=N/Nc1ccccn1`, for which the EC50 in experiment [18] is 3.83 µM (inconclusive); in experiment [20], 6.83 µM (active); in [22] it was 22.5 µM (active); in experiment [23] it was 1.51 µM (active); in [25], 3.19 µM (active). Further, the AbsAC35_uM in experiment [19] came to 82.89 µM. The values for the AC50 in experiment [21] and in experiment [24] were 1.32 µM (active) and 1.98 µM (active), respectively.

Turning to `C=C1C(=O)C23CCC4C(C)(C(=O)OC)CCCC4(C)C2CCC1(O)C3` (stereo unspecified), the AC50 in experiment [26] is 0.976 µM (active); in experiment [27], 5.71 µM (active); in experiment [21] it was 1.27 µM (active); in experiment [29], 1.66 µM (active). Moreover, the IC50 in [28] was 1.36 µM (active); in experiment [30], 46.8 µM (inactive).
